Assay results: ChEMBL document CHEMBL4602694, “Suppression of Drug-Resistant Non-Small-Cell Lung Cancer with Inhibitors Targeting Minichromosomal Maintenance Protein” (J Med Chem, 2020)
Active and inactive are the calls of the source. No cut-off for these calls is given here.

Tests used:
[1] = system: NCI-H1975; assay: Antitumor activity against human NCI-H1975 cells xenografted in athymic nude BALB/c mouse assessed as delay in tumor growth at 1 or 4 mg/kg, ip administered for 4 weeks; type: functional, organism-based
[2] = target: DNA replication licensing factor MCM2 (Homo sapiens) (UniProt P49736); assay: Binding affinity to MCM2 in human NCI-H1975 cells assessed as reduction in MCM2 level measured up to 9 hrs by immunoblot analysis; type: cell-based
Chain of DNA replication licensing factor MCM2 (Homo sapiens) (P49736 whole entry): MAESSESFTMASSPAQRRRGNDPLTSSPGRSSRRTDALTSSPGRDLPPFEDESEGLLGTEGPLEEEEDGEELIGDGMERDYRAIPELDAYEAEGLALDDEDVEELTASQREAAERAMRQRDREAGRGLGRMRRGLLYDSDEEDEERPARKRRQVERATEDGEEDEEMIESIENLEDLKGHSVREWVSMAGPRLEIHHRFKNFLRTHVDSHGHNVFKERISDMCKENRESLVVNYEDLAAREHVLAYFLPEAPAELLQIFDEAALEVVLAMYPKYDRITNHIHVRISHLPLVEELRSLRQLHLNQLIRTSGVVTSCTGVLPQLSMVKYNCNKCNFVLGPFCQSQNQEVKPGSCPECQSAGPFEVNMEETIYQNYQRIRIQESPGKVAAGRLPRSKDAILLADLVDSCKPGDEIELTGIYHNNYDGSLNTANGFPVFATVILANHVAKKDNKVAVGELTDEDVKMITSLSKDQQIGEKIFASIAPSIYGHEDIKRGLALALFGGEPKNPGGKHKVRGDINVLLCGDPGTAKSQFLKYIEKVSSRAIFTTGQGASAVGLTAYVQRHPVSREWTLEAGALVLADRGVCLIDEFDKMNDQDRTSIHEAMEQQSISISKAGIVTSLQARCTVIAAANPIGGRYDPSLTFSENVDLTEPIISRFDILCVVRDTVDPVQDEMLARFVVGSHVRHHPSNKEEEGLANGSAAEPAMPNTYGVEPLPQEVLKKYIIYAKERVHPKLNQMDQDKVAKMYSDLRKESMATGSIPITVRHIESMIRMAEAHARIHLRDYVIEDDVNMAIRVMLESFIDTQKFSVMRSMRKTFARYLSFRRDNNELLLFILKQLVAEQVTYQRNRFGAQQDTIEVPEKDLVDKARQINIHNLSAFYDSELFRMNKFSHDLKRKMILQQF

[3] = target: DNA replication licensing factor MCM2 (Homo sapiens) (UniProt P49736); assay: Induction of ubiquitination of MCM2 in human PC9 cells incubated for 24 hrs by immunoblot analysis; type: cell-based; conditions: PC-9
[4] = Toxicity in athymic nude BALB/c mouse xenografted with human NCI-H1975 cells assessed as effect on serum alanine transaminase at 1 or 4 mg/kg, ip administered for 4 weeks; type: organism-based; conditions: in vivo, 672 h
[5] = target: DNA replication licensing factor MCM7 (Homo sapiens) (UniProt P33993); assay: Induction of ubiquitination of MCM7 in human PC9 cells incubated for 24 hrs by immunoblot analysis; type: cell-based; conditions: PC-9
Chain of DNA replication licensing factor MCM7 (Homo sapiens) (P33993 whole entry): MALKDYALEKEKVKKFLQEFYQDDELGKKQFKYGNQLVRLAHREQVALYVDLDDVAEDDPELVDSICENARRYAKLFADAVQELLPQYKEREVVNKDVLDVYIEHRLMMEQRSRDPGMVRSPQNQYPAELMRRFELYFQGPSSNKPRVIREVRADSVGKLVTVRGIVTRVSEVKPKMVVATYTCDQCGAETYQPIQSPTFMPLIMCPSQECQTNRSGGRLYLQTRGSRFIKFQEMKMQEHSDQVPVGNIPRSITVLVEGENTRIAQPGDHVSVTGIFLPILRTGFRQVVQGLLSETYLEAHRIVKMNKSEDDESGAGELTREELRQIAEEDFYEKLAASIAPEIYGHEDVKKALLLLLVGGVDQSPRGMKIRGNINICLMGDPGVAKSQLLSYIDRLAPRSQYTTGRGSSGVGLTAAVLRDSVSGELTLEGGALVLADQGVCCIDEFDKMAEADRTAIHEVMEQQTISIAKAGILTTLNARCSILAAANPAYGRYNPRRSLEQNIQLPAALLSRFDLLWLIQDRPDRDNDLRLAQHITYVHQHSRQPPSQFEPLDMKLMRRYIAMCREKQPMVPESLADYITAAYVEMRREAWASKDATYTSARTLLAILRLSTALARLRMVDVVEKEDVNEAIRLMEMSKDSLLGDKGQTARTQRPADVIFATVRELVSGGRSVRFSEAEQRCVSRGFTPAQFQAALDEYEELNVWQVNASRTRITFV

[6] = Toxicity in athymic nude BALB/c mouse xenografted with human NCI-H1975 cells assessed as reduction in body weight at 1 or 4 mg/kg, ip administered for 4 weeks; type: organism-based; conditions: in vivo, 672 h
[7] = system: PC-9; assay: Antiproliferative activity against human PC9 cells assessed as reduction in cell viability incubated for 72 hrs by SRB assay; type: functional, cell-based; conditions: PC-9, 72 h
[8] = target: DNA replication licensing factor MCM2 (Homo sapiens) (UniProt P49736); assay: Induction of ubiquitination of MCM2 in human NCI-H1975 cells incubated for 24 hrs by magnetic beads technique based immunoblot analysis; type: cell-based
[9] = target: DNA replication licensing factor MCM7 (Homo sapiens) (UniProt P33993); assay: Induction of ubiquitination of MCM7 in human NCI-H1975 cells in presence of MG132 incubated for 48 hrs followed by MG132 addition and measured after 12 hrs by immunoblot analysis (reference value: 1.6); type: cell-based
[10] = system: NCI-H1975; assay: Antiproliferative activity against human NCI-H1975 cells harboring FLAG-tagged MCM2 Q341A mutant assessed as reduction in cell viability incubated for 72 hrs by SRB assay; type: functional, cell-based; conditions: NCI-H1975, 72 h
[11] = Antiproliferative activity against human PC9IR cells assessed as reduction in cell viability incubated for 72 hrs by SRB assay; type: functional, cell-based
[12] = system: NCI-H1975; assay: Antitumor activity against human NCI-H1975 cells xenografted in athymic nude BALB/c mouse assessed as tumor growth at 4 mg/kg, ip administered for 4 weeks (reference value: 1217 +/- 516.6 cu.mm); type: functional
[13] = Selectivity index, ratio of IC50 for human bronchial epithelial cells to IC50 for human PC9 cells; type: toxicity; conditions: human bronchial epithelial cells versus PC9 cells, read-out: Ratio IC50
[14] = system: NCI-H1975; assay: Induction of apoptosis in human NCI-H1975 cells assessed as increase in cleaved caspase 8 level at 140 nM incubated upto 72 hrs by immunoblotting analysis; type: functional, cell-based
[15] = target: T1, DNA replication licensing factor MCM5 (Homo sapiens) (UniProt P33992); assay: Induction of ubiquitination of MCM5 in human NCI-H1975 cells incubated for 72 hrs by immunoblot analysis (reference value: 1); type: cell-based
T1 sequence (whole entry): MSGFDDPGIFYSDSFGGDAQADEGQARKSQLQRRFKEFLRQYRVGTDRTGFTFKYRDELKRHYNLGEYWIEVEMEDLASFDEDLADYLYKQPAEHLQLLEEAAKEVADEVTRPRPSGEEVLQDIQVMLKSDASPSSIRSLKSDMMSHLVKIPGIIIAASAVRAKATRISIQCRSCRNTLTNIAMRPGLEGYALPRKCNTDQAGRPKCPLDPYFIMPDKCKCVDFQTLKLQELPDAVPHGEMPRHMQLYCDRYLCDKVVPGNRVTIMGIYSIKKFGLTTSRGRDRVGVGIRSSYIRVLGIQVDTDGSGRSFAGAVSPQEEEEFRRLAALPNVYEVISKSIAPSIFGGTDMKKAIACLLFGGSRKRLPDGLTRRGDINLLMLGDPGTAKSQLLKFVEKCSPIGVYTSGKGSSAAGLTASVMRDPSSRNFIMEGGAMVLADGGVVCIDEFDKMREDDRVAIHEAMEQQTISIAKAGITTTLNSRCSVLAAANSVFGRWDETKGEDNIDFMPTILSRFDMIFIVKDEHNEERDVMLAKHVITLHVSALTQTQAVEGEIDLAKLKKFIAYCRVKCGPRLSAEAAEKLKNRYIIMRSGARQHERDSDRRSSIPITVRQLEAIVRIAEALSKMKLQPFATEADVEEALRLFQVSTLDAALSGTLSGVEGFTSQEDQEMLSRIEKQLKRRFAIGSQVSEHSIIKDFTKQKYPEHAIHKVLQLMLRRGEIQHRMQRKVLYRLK

[16] = target: T2, DNA replication licensing factor MCM4 (Homo sapiens) (UniProt P33991); assay: Induction of ubiquitination of MCM4 in human NCI-H1975 cells incubated for 48 hrs by immunoblot analysis (reference value: 1); type: cell-based
T2 sequence (whole entry): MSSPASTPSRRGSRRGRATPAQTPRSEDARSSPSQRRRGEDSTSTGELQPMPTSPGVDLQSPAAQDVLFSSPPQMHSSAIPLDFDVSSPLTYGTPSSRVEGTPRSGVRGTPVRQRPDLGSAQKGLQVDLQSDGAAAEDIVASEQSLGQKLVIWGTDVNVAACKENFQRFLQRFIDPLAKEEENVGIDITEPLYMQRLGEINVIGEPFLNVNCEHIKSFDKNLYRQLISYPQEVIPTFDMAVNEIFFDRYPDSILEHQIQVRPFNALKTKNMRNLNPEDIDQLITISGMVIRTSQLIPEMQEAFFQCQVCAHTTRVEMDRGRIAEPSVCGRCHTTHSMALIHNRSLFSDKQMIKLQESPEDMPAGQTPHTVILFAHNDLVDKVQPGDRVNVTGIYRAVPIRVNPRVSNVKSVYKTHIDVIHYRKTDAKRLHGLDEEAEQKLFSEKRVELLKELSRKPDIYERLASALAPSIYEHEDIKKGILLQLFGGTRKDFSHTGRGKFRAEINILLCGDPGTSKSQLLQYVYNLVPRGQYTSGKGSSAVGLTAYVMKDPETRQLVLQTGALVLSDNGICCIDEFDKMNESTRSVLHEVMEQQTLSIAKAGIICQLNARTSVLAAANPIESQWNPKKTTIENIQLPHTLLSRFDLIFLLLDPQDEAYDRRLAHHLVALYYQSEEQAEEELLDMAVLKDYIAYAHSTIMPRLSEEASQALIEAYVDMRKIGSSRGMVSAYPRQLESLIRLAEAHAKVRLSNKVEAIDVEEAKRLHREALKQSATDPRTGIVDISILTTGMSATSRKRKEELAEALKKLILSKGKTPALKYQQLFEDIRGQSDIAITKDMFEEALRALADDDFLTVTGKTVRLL

[17] = Toxicity in athymic nude BALB/c mouse xenografted with human NCI-H1975 cells assessed as effect on serum aspartate transaminase at 1 or 4 mg/kg, ip administered for 4 weeks; type: organism-based; conditions: in vivo, 672 h
[18] = system: DNA replication licensing factor MCM2 (Homo sapiens), P49736 [Q341A]; assay: Induction of ubiquitination of FLAG-tagged MCM2 Q341A mutant (unknown origin) expressed in human 293T cells incubated for 4 hrs by magnetic beads technique based immunoblot analysis; type: cell-based; conditions: HEK-293T
Chain of DNA replication licensing factor MCM2 (Homo sapiens), P49736 [Q341A] (P49736 whole entry Q341A): as the sequence (P49736 whole entry) above, with Q341A counted along it

Activity [2]: Active
Activity [3]: Active
Activity [5]: Active
IC50 [7]: < 0.1 µM
Activity [8]: Active
Activity [9]: 0.7
IC50 [10]: 0.15 µM
Activity [15]: 0.8
Activity [16]: 1.1
Activity [18]: Active
Compound: Cc1oc2c(c1C(=O)NCCCn1ccnc1)C(=O)c1ccccc1C2=O
Activity [1]: Active
Activity [4]: Non-Toxic
Activity [6]: Non-Toxic
IC50 [11]: < 0.1 µM
Activity [12]: 518 mm3
selectivity ratio [13]: > 10
Activity [14]: Active
Activity [17]: Non-Toxic
